Paper PMC6606765, “Stargazin and γ4 slow the channel opening and closing rates of GluA4 AMPA receptors” (Scientific Reports, 2019)
Values joined by “and” are separate entries in the source; they are usually repeats but may differ in a detail not shown here. Identical values can stand only once.

Legend:
GluA4 homomeric channels [1] = molecular target: T1, GluA4 homomeric channels (Rattus norvegicus, UniProt P19493); assay: Whole-cell current recording with fast solution flow (dose-response, desensitization) in transfected HEK-293 cells; format: cell-based
T1 construct: expressed in transfected cells; host or cells: HEK-293S
Experimental: (§1) The γ-2 and γ-4 plasmids were generously provided by Prof. Susumu Tomita. The flip isoform of GluA4[30] with and without a TARP was transiently expressed in HEK-293S cell. The tissue culture and transfection procedure were described before. In brief, HEK-293S cells were cultured in Dulbecco’s modified Eagle’s medium supplemented with 10% fetal bovine serum, 100 U/mL penicillin, and 100 μg/mL streptomycin in a 37 °C, 6% CO2, humidified incubator. In co-transfecting a TARP, we used 1:1 and 1:2 weight ratio of the plasmid of GluA4 to a TARP (GluA4 plasmid was 3–6 μg/35 mm dish). Co-transfection also included green fluorescent protein (GFP) and large T-antigen (TAg)[46]. We also added a 2,3-benzodiazepine inhibitor[47] after transfection to prevent cell toxicity due to transfection of TARP. Transfected cells were grown for >48 h before recording.
(§2) Briefly, the pipet solution or internal solution contained (in mM) 110 CsF, 30 CsCl, 4 NaCl, 0.5 CaCl2, 5 EGTA, and 10 HEPES (pH 7.4 adjusted by NaOH). The external cellular solution or bath solution contained (in mM) 150 NaCl, 3 KCl, 1 CaCl2, 1 MgCl2, and 10 HEPES (pH 7.4 adjusted by NaOH)[46]. The GFP fluorescence in transfected cells was visualized on an Axiovert S100 microscope with a fluorescent detection system from Carl Zeiss. The whole-cell current was recorded using an Axopatch-200B amplifier at a cutoff frequency of 2–20 kHz by a built-in, four-pole Bessel filter and digitized at 5–50 kHz sampling frequency using an Axon Digidata 1322 A. Unless otherwise noted, all experiments were performed with transfected HEK-293S cells voltage-clamped at −60 mV and at 22 °C.
(§3) The laser-pulse photolysis technique was used to measure the channel-opening kinetic constants of an AMPA receptor, as we previously reported. […] A Minilite II pulsed Q-switched Nd:YAG laser (Continuum, Santa Clara, CA) delivered single pulses at 355 nm with a pulse length of 8 ns.
(§4) Based on this general, minimal mechanism of channel opening, Eq. 1 was derived. In Eq. 1, IA is the observed amplitude of macroscopic current amplitude, IM is the current per mole of receptor, RM the number of moles of receptors on the cell surface, and Φ^−1 the channel opening equilibrium constant. A non-linear regression was performed to determine K1, along with other parameters, from a dose-response relationship. Each of the current traces was corrected for desensitization before it was used in calculating dose-response relationship[48].1 IA=IMRML^n/L^n+Φ(L+K1)^n

GluA4/γ4 [2] = molecular target: T2, GluA4/γ4 (Rattus norvegicus, UniProt P19493); assay: as above; format: cell-based
T2 construct: expressed in transfected cells; host or cells: HEK-293S
Experimental: as §1, §2, §3, §4

GluA4/γ2 [3] = molecular target: T3, GluA4/γ2 (Rattus norvegicus, UniProt P19493); assay: as above; format: cell-based
T3 construct: expressed in transfected cells; host or cells: HEK-293S
Experimental: as §1, §2, §3, §4

GluA4 homomeric channels [4] = molecular target: T1, GluA4 homomeric channels; set-up: method as in PMID 15823042; conditions: GluA4 alone; cited from earlier work
GluA4 homomeric channels [5] = molecular target: T1, GluA4 homomeric channels; assay: Laser-pulse photolysis of caged glutamate with whole-cell current recording (channel-opening kinetics); format: cell-based; conditions: linear fit of kobs vs glutamate concentration, Eq. 3, ±SEM
Experimental: as §1, §2, §3
(§5) The kop and kcl values were determined from the rising phase of a whole-cell current trace in a laser-pulse photolysis experiment. […] The observed first-order rate constant of channel opening, kobs, was estimated by using Eq. 22 It=Imax(1−e^−kobst) where It and Imax represent the whole-cell current amplitude at time t, and the maximum current amplitude, respectively. Based on the general mechanism of channel opening, Eq. 3 was derived to describe the relationship between kobs and ligand concentration:3 kobs=kcl+kop(L/L+K1)^n
(§6) In deriving Eq. 3, we assumed the rate of ligand binding was fast relative to the rate of channel opening.

GluA4/γ4 [6] = molecular target: T2, GluA4/γ4; assay: as above; format: cell-based
Experimental: as §1, §2, §3, §5, §6

GluA4/γ2 [7] = molecular target: T3, GluA4/γ2; assay: as above; format: cell-based
Experimental: as §1, §2, §3, §5, §6

[8] = best fit of dose-response with Eq. 1
[9] = mean ±SD, saturated whole-cell responses evoked by 10 and 20 mM glutamate, HEK-293S, −60 mV, 22 °C
[10] = Table S3A nonlinear fitting, kcl fixed 900 s-1
[11] = Table S3A nonlinear fitting, kcl fixed 1100 s-1
[12] = Table S3A nonlinear fitting, kcl fixed 1300 s-1
[13] = linear fit of kobs vs glutamate concentration, Eq. 3, ±SEM
[14] = Table S2A nonlinear fitting, kcl fixed 1000 s-1
[15] = Table S2A nonlinear fitting, kcl fixed 1200 s-1
[16] = Table S2A nonlinear fitting, kcl fixed 1400 s-1

T2 sequence (P19493 21-902 isoform P19493-2 limits assumed): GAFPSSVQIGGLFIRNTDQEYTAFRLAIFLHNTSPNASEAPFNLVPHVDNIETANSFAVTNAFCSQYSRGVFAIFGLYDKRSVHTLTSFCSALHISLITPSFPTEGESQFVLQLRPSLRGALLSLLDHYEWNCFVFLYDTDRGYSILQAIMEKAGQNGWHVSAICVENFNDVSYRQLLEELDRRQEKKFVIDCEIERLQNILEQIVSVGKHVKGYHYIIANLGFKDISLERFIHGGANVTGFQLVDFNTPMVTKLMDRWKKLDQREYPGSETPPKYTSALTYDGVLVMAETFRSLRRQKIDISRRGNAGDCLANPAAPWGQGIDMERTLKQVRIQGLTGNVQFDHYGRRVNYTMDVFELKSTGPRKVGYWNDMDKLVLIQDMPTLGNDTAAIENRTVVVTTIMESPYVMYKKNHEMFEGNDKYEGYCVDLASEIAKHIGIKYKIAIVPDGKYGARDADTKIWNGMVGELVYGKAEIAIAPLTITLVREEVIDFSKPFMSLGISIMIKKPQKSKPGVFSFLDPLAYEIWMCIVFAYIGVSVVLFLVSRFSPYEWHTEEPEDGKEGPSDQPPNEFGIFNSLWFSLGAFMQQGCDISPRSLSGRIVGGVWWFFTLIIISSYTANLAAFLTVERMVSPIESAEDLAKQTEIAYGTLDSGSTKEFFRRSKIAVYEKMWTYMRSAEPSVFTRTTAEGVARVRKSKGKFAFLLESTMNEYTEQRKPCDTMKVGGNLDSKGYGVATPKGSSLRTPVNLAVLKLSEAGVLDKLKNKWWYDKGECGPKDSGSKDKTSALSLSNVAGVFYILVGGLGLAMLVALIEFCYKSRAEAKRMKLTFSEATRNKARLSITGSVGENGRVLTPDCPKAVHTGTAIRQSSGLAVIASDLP
T1 sequence (P19493 21-902 isoform P19493-2 limits assumed): as above
T3 sequence (P19493 21-902 isoform P19493-2 limits assumed): as above

SMILES: N[C@@H](CCC(=O)O)C(=O)O [glutamate]
- Φ (Φ^−1 = channel opening equilibrium constant) (GluA4 homomeric channels [1]; [8]): 0.36 ± 0.88
- Hill Coefficient (GluA4 homomeric channels [1]; dose-response curve): 2.18 ± 0.21
- kdes (maximum desensitization rate constant) (GluA4 homomeric channels [1]; [9]): 181 ± 7 s⁻¹
- Φ (Φ^−1 = channel opening equilibrium constant) (GluA4/γ4 [2]; [8]): 0.39 ± 1.36
- Hill Coefficient (GluA4/γ4 [2]; dose-response curve): 1.08 ± 0.10
- kdes (maximum desensitization rate constant) (GluA4/γ4 [2]; [9]): 90 ± 12 s⁻¹
- Φ (Φ^−1 = channel opening equilibrium constant) (GluA4/γ2 [3]; [8]): 0.41 ± 0.95
- Hill Coefficient (GluA4/γ2 [3]; dose-response curve): 1.07 ± 0.14
- kdes (maximum desensitization rate constant) (GluA4/γ2 [3]; [9]): 135 ± 11 s⁻¹
- Popen (channel-opening probability) (GluA4 homomeric channels [4]): 0.96
- kcl (channel-closing rate constant) (GluA4 homomeric channels [5]): 3.4 ± 0.1 x 10^3 s^−1 and 3.39 ± 0.11 x 10^3 s^−1
- kop (channel-opening rate constant) (GluA4 homomeric channels [5]): 6.4 ± 0.4 x10^4 s^−1 and 6.41 ± 0.44 x10^4 s^−1
- Popen (channel-opening probability) (GluA4/γ4 [6]; Popen = kop/(kop + kcl)): ~ 0.93
- kop, final output Ave. (GluA4/γ4 [6]; [10]): 16862 s⁻¹
- n, final output Ave. (GluA4/γ4 [6]; [10]): 1.99
- kop, final output Ave. (GluA4/γ4 [6]; [11]): 16375 s⁻¹
- n, final output Ave. (GluA4/γ4 [6]; [11]): 2.20
- kop, final output Ave. (GluA4/γ4 [6]; [12]): 15640 s⁻¹
- n, final output Ave. (GluA4/γ4 [6]; [12]): 2.41
- kop, final output Ave. (GluA4/γ4 [6]; Table S3B nonlinear fitting, n fixed 2, kcl fixed 900 s-1): 15152 s⁻¹
- kop, final output Ave. (GluA4/γ4 [6]; Table S3B nonlinear fitting, n fixed 2, kcl fixed 1100 s-1): 13642 s⁻¹
- kop, final output Ave. (GluA4/γ4 [6]; Table S3B nonlinear fitting, n fixed 2, kcl fixed 1300 s-1): 11557 s⁻¹
- kcl (channel-closing rate constant) (GluA4/γ4 [6]; [13]): 1.1 ± 0.1 x 10^3 s^−1 and 1.08 ± 0.05 x 10^3 s^−1
- kop (channel-opening rate constant) (GluA4/γ4 [6]; [13]): 1.7 ± 0.2 x10^4 s^−1 and 1.70 ± 0.15 x10^4 s^−1
- Popen (channel-opening probability) (GluA4/γ2 [7]; Popen = kop/(kop + kcl)): ~ 0.93
- kop, final output Ave. (GluA4/γ2 [7]; [14]): 17591 s⁻¹
- n, final output Ave. (GluA4/γ2 [7]; [14]): 1.59
- kop, final output Ave. (GluA4/γ2 [7]; [15]): 19225 s⁻¹
- n, final output Ave. (GluA4/γ2 [7]; [15]): 1.88
- kop, final output Ave. (GluA4/γ2 [7]; [16]): 22936 s⁻¹
- n, final output Ave. (GluA4/γ2 [7]; [16]): 2.11
- kop, final output Ave. (GluA4/γ2 [7]; Table S2B nonlinear fitting, n fixed 2, kcl fixed 1000 s-1): 15488 s⁻¹
- kop, final output Ave. (GluA4/γ2 [7]; Table S2B nonlinear fitting, n fixed 2, kcl fixed 1200 s-1): 15607 s⁻¹
- kop, final output Ave. (GluA4/γ2 [7]; Table S2B nonlinear fitting, n fixed 2, kcl fixed 1400 s-1): 18961 s⁻¹
- kcl (channel-closing rate constant) (GluA4/γ2 [7]; [13]): 1.2 ± 0.1 x 10^3 s^−1 and 1.17 ± 0.11 x 10^3 s^−1
- kop (channel-opening rate constant) (GluA4/γ2 [7]; [13]): 1.3 ± 0.1 x10^4 s^−1 and 1.32 ± 0.12 x10^4 s^−1
